Measured values from PubChem BioAssay AID602267 (Broad Institute, 2012).
The source made the active and inactive calls.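 How the source made its calls: active means signal falls with dose and the fitted half-maximal concentration is at or below twice the top valid tested dose; inconclusive means flat curve with 30 to 70% inhibition, or poor fit; inactive means wrong direction, flat within 30%, or potency beyond limit.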

Molecular target: Golgi-associated PDZ and coiled-coil motif-containing protein (Homo sapiens) (UniProt Q9HD26)
Assay: blockers of CAL PDZ ligand groove binding – biochemical, fluorescence polarization, untagged CAL PDZ, cherry-pick, dose response (AID 602267);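 on activity change, negative = inhibition: 0% = DMSO neutral wells and -100% = excess unlabeled competitor peptide wells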
Settings: purified CAL PDZ, TMR-peptide fluorescence polarization, 1 h

| SMILES | AC50 [µM] |
| --- | --- |
| COc1ccc2noc3c2c1C(=O)c1ccccc1-3 | 1.78 |
| CCNc1ccc2noc3c2c1C(=O)c1ccccc1-3 | 4.74 |

Same assay, conditions: purified CAL PDZ, TMR-peptide fluorescence polarization, 1 h; at 16 µM (top of the series)

| SMILES | activity change, negative = inhibition |
| --- | --- |
| O=C(c1ccccc1)C(c1ccccc1)c1ccccc1 | inactive |

Same assay, conditions: purified CAL PDZ, TMR-peptide fluorescence polarization, 1 h; at 50 µM (top of the series)

| SMILES | activity change, negative = inhibition |
| --- | --- |
| Cc1ccc(NC(=O)N2CCCC2C(=O)NCC2CCCO2)cc1 (centres undefined) | inactive |
| Cc1c(NC(=O)CN2CCC(C(N)=O)CC2)cccc1[N+](=O)[O-] | inactive |
| O=C(NCCc1ccccc1)C1CCC(=O)N(CCCN2CCCC2=O)C1 (centres undefined) | inactive |
| CCOC(=O)C1CCN(C(=O)C2CC(=O)N(c3ccc4c(c3)OCCO4)C2)CC1 (centres undefined) | inactive |
| CN(C)c1ccc(C=c2c3cc(O)ccc3n3c2cc(-c2ccccc2)[n+]3C)cc1 | inactive |
| Cc1ccc2nc(NS(C)(=O)=O)sc2c1 | inactive |
| O=C(COC(=O)CNC(=O)c1cccc([N+](=O)[O-])c1)NCc1ccco1 | inactive |
| CN(C)/N=C1\CCS(=O)(=O)c2sccc21 | inactive |
| CC(=O)NC(Cc1ccccc1)C(C)=O (centres undefined) | inactive |
| CCn1c(=O)c(C(C)=O)c(O)c2ccccc21 | inactive |
| CCCCNC(=O)c1ccc(-n2c(=S)[nH]c3ccccc3c2=O)cc1 | inactive |
| O=C(Nc1ccccc1Cl)Nc1cccnc1Cl | inactive |
| O=C(NCc1ccccc1Cl)C1CC(=O)N(Cc2ccccc2)C1 (centres undefined) | inactive |
| Cc1c(C(=O)OCC(=O)NC(=O)NC2CCCCC2)cccc1[N+](=O)[O-] | inactive |
| CCOCCCNC(=S)N1CCN(c2nc(-c3ccccc3)cs2)CC1 | inactive |
| CO[C@H]1O[C@H](C)[C@@H](O)C[C@H]1NC(=O)OCc1ccccc1 | inactive |
| O=C(/C=C/c1cccs1)Nc1scc(-c2ccccc2)c1C(=O)O | inactive |
| Cc1cccc(NC(=O)Cn2cnc3c(oc4ccccc43)c2=O)c1C | inactive |
| CSc1ccccc1NC(=O)c1ccccc1 | inactive |
| O=C(O)CCCC(=O)N1N=C(c2ccccc2)CC1c1ccc2c(c1)OCO2 (centres undefined) | inactive |
| CCN1CCN(S(=O)(=O)c2ccc(OC)c3ccccc23)CC1 | inactive |
| CC(C)CNC(=O)COC(=O)CCC(=O)c1ccc(Cl)cc1 | inactive |

| SMILES | activity change, negative = inhibition |
| --- | --- |
| CCOC(=O)C1=C(C)OC(N)=C(C#N)C1c1cccc(C)c1 (centres undefined) | inactive |
| O=[N+]([O-])c1ccc(N/N=C/c2cccnc2)cc1 | inactive |
| O=C(N/N=C/c1ccc(OCc2ccccc2)cc1)c1ccc(O)cc1 | inactive |
| FC(F)(F)Oc1ccc(NC(=S)NCCCN2CCOCC2)cc1 | inactive |
| CCOC(=O)N1CCN(Cc2nc3c(c(=O)n(C)c(=O)n3C)n2Cc2cccc(C)c2)CC1 | inactive |
| Cc1cccc(CN2CCc3c([nH]c4ccccc34)C2CC(C)C)n1 (centres undefined) | inactive |
| Cc1cccc(C(=O)Nc2ccc(C(=O)/C=C/c3ccncc3)cc2)c1 | inactive |
| Brc1cccc(CNCC2CCCO2)c1 (centres undefined) | inactive |
| CC(C)n1cc(C(=O)N2CCCC(N3CCN(c4ccc(F)cc4)CC3)C2)cn1 (centres undefined) | inactive |
| O=C(c1cc2cc([N+](=O)[O-])ccc2oc1=O)N1CCN(C2CCCCC2)CC1 | inactive |
| Cn1c(=O)c2c(ncn2CC(=O)Nc2nc(-c3ccccc3Cl)cs2)n(C)c1=O | inactive |
| CN1CC(=O)N(CC(=O)Nc2ccc(Br)cc2F)C1=O | inactive |
| CCOc1ccccc1N(CC(=O)Nc1cccc2ccccc12)S(C)(=O)=O | inactive |
| COc1ccc(/C=N/N2CCN(c3ccccc3OC)CC2)cc1Br | inactive |
| CCOC(=O)/C=C/C(=O)OCC(=O)Nc1ccc([N+](=O)[O-])cc1 | inactive |
| C=CCn1c(NC(=O)c2ccco2)nc2ccccc21 | inactive |
| COC(=O)[C@H]1[C@H]2C[C@@H]3c4[nH]c5cc(OC)ccc5c4CCN3C[C@H]2C[C@@H](OC(=O)/C=C/c2cc(OC)c(OC)c(OC)c2)[C@@H]1OC | inactive |
| O=C(NCc1cccs1)c1cccn2c(=O)c3sccc3nc12 | inactive |
| CC(C)CNC(=O)CN1C(=O)NC(Cc2c[nH]c3ccccc23)C1=O (centres undefined) | inactive |
| O=C(Nc1nccs1)c1ccc(F)c(S(=O)(=O)N2CCOCC2)c1 | inactive |
| O=C(COC(=O)c1cccc(O)c1)NC(=O)Cc1ccccc1 | inactive |
| C=CCNC(=O)CC1Nc2c3ccccc3nc(=S)n2C1=O (centres undefined) | inactive |

| SMILES | activity change, negative = inhibition |
| --- | --- |
| CCN(CC)CCn1c(SCC(=O)NCc2ccccc2)nc2c(sc3ccccc32)c1=O | inactive |
| COc1ccc(C(C)=O)cc1COC(=O)CNC(=O)c1ccccc1F | inactive |
| Cc1ccc(CN(Cc2cccnc2)C(=S)Nc2cccc(Cl)c2C)cc1 | inactive |
| CCOC(=O)CCNC(=O)N1CCCC(CNS(=O)(=O)Cc2ccccc2)C1 (centres undefined) | inactive |
| Cc1ccc(S(=O)(=O)N2CCN(C(=O)c3cc(=O)c4ccccc4o3)CC2)cc1 | inactive |
| NC(=O)c1cc2ccccc2o/c1=N\NC(=O)c1ccncc1 | inactive |
| CCN(CC)S(=O)(=O)c1ccc(/C=C/C(=O)OCC(=O)N(C)C)cc1 | inactive |
| CCOC(=O)C1(CCOc2ccccc2)CCN(CC(O)CO)CC1 (centres undefined) | inactive |
| O=C(NNS(=O)(=O)c1ccc(Cl)cc1)c1cccs1 | inactive |
| Cc1cc(C)c(S(=O)(=O)NCc2ccc3c(c2)OCO3)c(C)c1 | inactive |
| Cc1ccc(S(=O)(=O)N2CCN(CCC#N)CC2)cc1 | inactive |
| COc1ccc(-n2c(=S)[nH]c3c(sc(=S)n3-c3ccccc3)c2=O)c(OC)c1 | inactive |
| Cc1ccccc1S(=O)(=O)NC(=NCc1ccc(F)cc1)c1ccccc1 | inactive |
| CC(C)c1ccc(CNC(=O)C(=O)NCCCn2ccnc2)cc1 | inactive |
| CCCC(=O)OCC(=O)Nc1ccccc1C#N | inactive |
| COc1ccccc1Oc1coc2cc(OC(=O)N3CCOCC3)ccc2c1=O | inactive |
| O=C(O)c1[nH]c2ccccc2c1C(c1ccccc1)c1c(C(=O)O)[nH]c2ccccc12 | inactive |
| CCOCCCNC(=O)c1ccc2c(=O)n(Cc3ccc4c(c3)OCO4)c(=S)[nH]c2c1 | inactive |
| CN(C)S(=O)(=O)c1ccc(Cl)c(NC(=O)CSc2nnnn2-c2ccc(O)cc2)c1 | inactive |
| CCNC(=S)N(CCN(CC)CC)Cc1cc2cc3c(cc2[nH]c1=O)OCCO3 | inactive |
| CC(=O)NC1C(=O)N(CCN2CCOCC2)c2ccc(Cl)cc21 (centres undefined) | inactive |
| COc1ccc(CN2CN(C3CCCC3)CSC2=S)cc1 | inactive |

| SMILES | activity change, negative = inhibition |
| --- | --- |
| O=C(NNC(=O)c1c(F)cccc1F)c1sccc1-n1cccc1 | inactive |
| CC(=O)Nc1cccc(NC(=O)CSc2nnc(NC(=O)c3ccco3)s2)c1 | inactive |
| COc1ccc(S(=O)(=O)N2CCOCC2)cc1NC(=O)CN1CCCCCC1 | inactive |
| CCC1C(=O)NCCN1C(=O)CCc1nnc(CCc2ccc(OC)cc2)o1 (centres undefined) | inactive |
| O=C(O)c1ccc(Oc2cc(Oc3ccc(C(=O)O)cc3)cc([N+](=O)[O-])c2)cc1 | inactive |
| Cc1nc(N)c(CC(Br)CBr)c(Cl)n1 (centres undefined) | inactive |
| COc1cc(NC(=O)c2cccs2)ccc1NC(=O)c1ccccc1Cl | inactive |
| O=C(NNC(=O)c1ccc(Cl)c(Cl)c1)c1cccnc1 | inactive |
| CCC(=O)c1ccc(N2CCC(C)CC2)c(F)c1 | inactive |
| COC(=O)CN1C(=O)N/C(=C/c2cc(Cl)c(OC)c(OC)c2)C1=O | inactive |
| COc1cc(/C=C2\C(=O)NC(=O)N(c3ccccc3)C2=O)c([N+](=O)[O-])cc1OC | inactive |
| Cc1ccc(CNC2CCCCC2)s1 | inactive |
| CCN(CC(=O)Nc1cc(Cl)cc(Cl)c1)CC(=O)NC1CCS(=O)(=O)C1 (centres undefined) | inactive |
| CCC(C)(C)NC(=O)CSc1nc(Cc2ccccc2)nc2ccccc12 | inactive |
| Cc1cc(Cl)c(Cl)cc1S(=O)(=O)NCCCn1ccnc1 | inactive |
| Cc1c(C)c2cc3c4c(oc3c(C)c2oc1=O)CCCC4 | inactive |
| Cc1cc(C(=O)CN2CCCC2)c(C)n1-c1ccc(Cl)cc1 | inactive |
| CC(=O)c1ccc(S(=O)(=O)N2CCN(c3ccccc3F)CC2)cc1 | inactive |
| CCc1noc(C)c1C(=O)N1CCCC(CCC(=O)NCc2ccc(F)c(F)c2)C1 (centres undefined) | inactive |
| C(=C/c1nccc2c1[nH]c1ccccc12)/c1ccc2c(c1)OCO2 | inactive |
